# According to publication PMC6202177 (Nature chemical biology, 2018):
# B1: TAPBPR (TAP-binding protein related), luminal domain (domain or fragment)
# chain: KPHPAEGQWRAVDVVLDCFLAKDGAHRGALASSEDRARASLVLKQVPVLDDGSLEDFTDFQGGTLAQDDPPIIFEASVDLVQIPQAEALLHADCSGKEVTCEISRYFLQMTETTVKTAAWFMANMQVSGGGPSISLVMKTPRVTKNEALWHPTLNLPLSPQGTVRTAVEFQVMTQTQSLSFLLGSSASLDCGFSMAPGLDLISVEWRLQHKGRGQLVYSWTAGQGQAVRKGATLEPAQLGMARDASLTLPGLTIQDEGTYICQITTSLYRAQQIIQLNIQASPKVRLSLANEALLPTLICDIAGYYPLDVVVTWTREELGGSPAQVSGASFSSLRQSVAGTYSISSSLTAEPGSAGATYTCQVTHISLEEPLGASTQVVPPERR
# Assays:
# [1] = target: H2-D^d/TAPBPR (MHC-I/TAPBPR) (Mus musculus, UniProt P01900); assay: Thermodynamic cycle step 4: peptide binding to MHC-I/TAPBPR; design: species or system murine H2-D^d, human β2m; settings: Fig. 6 mechanism, in words
# [2] = target: peptide-deficient H2-D^d/hβ2m/TAPBPR (Mus musculus, UniProt P01900); assay: Fluorescence anisotropy competition with TAMRA-P18-I10; format: binding, murine H2-D^d, human β2m; settings: negative control peptide, in words
# biotinylated TAPBPR = biotinylated TAPBPR (UniProt Q9BX59); assay: SPR
# [3] = target: peptide-deficient H2-D^d/hβ2m/TAPBPR complex (murine | human | not stated); assay: fluorescence polarisation
# […]/HLA-A*01:01/hβ2m = NMR binding of TAPBPR; design: species or system human
# P18-I10/H2-D^d = assay: SEC binding of TAPBPR; design: species or system murine H2-D^d; settings: fully-loaded P18-I10/H2-D^d, in words
# P18-I10/H2-D^d/hβ2m [4] = assay: NMR titration and line shape analysis of TAPBPR onto P18-I10/H2-D^d/hβ2m; format: binding, murine H2-D^d, human β2m; settings: slow exchange on the chemical shift timescale, in words
# peptide-deficient H2-D^d = assay: SEC binding of TAPBPR; design: species or system murine H2-D^d; settings: in words
# RGPGC/H2-D^d S73C = assay: SEC binding of TAPBPR; design: species or system murine H2-D^d; settings: partially loaded RGPGC/H2-D^d S73C, in words
# […]/HLA-B*15:01/hβ2m = SEC binding of TAPBPR; design: species or system human
# […]/HLA-B*27:02/hβ2m = SEC binding of TAPBPR; design: species or system human
# [5] = target: peptide-deficient H2-D^d/hβ2m/TAPBPR complex (murine | human | not stated); assay: NMR titration
# P18-I10/H2-D^d/hβ2m [6] = target: P18-I10/H2-D^d/hβ2m (murine | human | HIV); assay: NMR titration
molecule,measurement,setting,value
FVTI,affinity class of peptide,[1],low-affinity
same,stability and exchange in the DSF and FA assays,[2],minimal stability and exchange
H2-D^(d S73C)/β2m (complex),koff,biotinylated TAPBPR,< 0.002 s⁻¹
P18-I10 peptide,K2′,[3],0.186 µM
same,Kd,[3],0.09 µM
"TAPBPR: molecular chaperone, TAP-binding protein related; luminal domain expressed in Drosophila S2 cells",TAPBPR binding (NMR),"[…]/HLA-A*01:01/hβ2m; 200 µM pMHC-I, two-fold molar excess TAPBPR, HLA-A*01:01",No TAPBPR binding could be detected
same,koff implied if an interaction exists,"[…]/HLA-A*01:01/hβ2m; HLA-A*01:01, inferred from lack of detectable binding (≫)",> 3 s⁻¹
same,TAPBPR binding (SEC),P18-I10/H2-D^d,high-affinity complex
same,TAPBPR binding to pMHC-I by NMR,P18-I10/H2-D^d/hβ2m [4],tight complex
same,TAPBPR binding (SEC),peptide-deficient H2-D^d,high-affinity complex
same,TAPBPR binding (SEC),RGPGC/H2-D^d S73C,high-affinity complex
same,TAPBPR binding (SEC),"[…]/HLA-B*15:01/hβ2m; 80 μM pMHC-I, 160 μM TAPBPR, room temperature 1 hour, HLA-B*15:01",No TAPBPR binding could be detected
same,koff implied if an interaction exists,"[…]/HLA-B*15:01/hβ2m; HLA-B*15:01, inferred from lack of detectable binding (≫)",> 3 s⁻¹
same,TAPBPR binding (SEC),"[…]/HLA-B*27:02/hβ2m; 80 μM pMHC-I, 160 μM TAPBPR, room temperature 1 hour, HLA-B*27:02",No TAPBPR binding could be detected
same,koff implied if an interaction exists,"[…]/HLA-B*27:02/hβ2m; HLA-B*27:02, inferred from lack of detectable binding (≫)",> 3 s⁻¹
^13C labeled P18-I10 (peptide),Kd,[5],< 7.2 µM
same,koff,[5],< 80 s⁻¹
B1,Kd,P18-I10/H2-D^d/hβ2m [6],32 µM
